{
  "source": "patent US9604996B2",
  "about": "(Bayer Pharma Aktiengesellschaft, priority 2013, dated 2017)",
  "data": [
    {"biological_target": "T1, human adenosine A2b receptor (Homo sapiens, UniProt P29275)", "T1 construct": "expressed in transfected cells; host or cells: CHO-K1 (Chinese Hamster Ovary) with CRE-luciferase reporter", "T1 sequence (P29275 1-332)": "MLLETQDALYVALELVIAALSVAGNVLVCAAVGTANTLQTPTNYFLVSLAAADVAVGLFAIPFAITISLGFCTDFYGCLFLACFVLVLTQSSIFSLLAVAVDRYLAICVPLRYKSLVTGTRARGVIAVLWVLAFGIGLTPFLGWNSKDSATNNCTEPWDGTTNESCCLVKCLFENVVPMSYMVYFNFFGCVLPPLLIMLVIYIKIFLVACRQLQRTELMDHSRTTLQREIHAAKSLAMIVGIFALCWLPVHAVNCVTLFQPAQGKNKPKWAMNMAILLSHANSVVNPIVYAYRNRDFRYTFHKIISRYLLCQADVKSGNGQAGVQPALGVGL", "experiment": "Cellular reporter gene (CRE-luciferase) A2b receptor antagonist assay in recombinant CHO-K1 cells stimulated with NECA", "type": "cell-based", "conditions": "recombinant CHO-K1 cell line, co-incubation with EC50 concentration of NECA, 3 hours, in some cases means, rounded to two significant digits", "in_short": "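CHO-K1 cells expressing human A2b receptor with a CRE-driven firefly luciferase reporter, co-incubated with test compound and NECA at its same-day EC50 concentration. Luminescence read 3 hours after NECA addition.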", "units": {"IC50": "nM"}, "values": [
      {"smiles": "Cc1c(C(=O)N2CCC(O)CC2)sc2c1c(=O)n(CC1(c3ccccc3)CC1)c(=O)n2CCC(F)(F)F", "note": "[Example 49, 6-[(4-Hydroxypiperidin-1-yl)carbonyl]-5-methyl-3-[(1-phenylcyclopropyl)methyl]-1-(3,3,3-trifluoropropyl)thieno[2,3-d]pyrimidine-2,4(1H,3H)-dione]", "IC50": 68},
      {"smiles": "COC(C)Cn1c(=O)c2c(C)c(C(=O)N3CCC(O)CC3)sc2n(CCC(F)(F)F)c1=O", "note": "(racemic) [Example 65, 6-[(4-Hydroxypiperidin-1-yl)carbonyl]-3-(2-methoxypropyl)-5-methyl-1-(3,3,3-trifluoropropyl)thieno[2,3-d]pyrimidine-2,4(1H,3H)-dione (racemate)]", "IC50": 96},
      {"smiles": "COC(Cn1c(=O)c2c(C)c(C(=O)N3CCC(O)(CO)CC3)sc2n(CCC(F)(F)F)c1=O)C(F)(F)F", "note": "(racemic) [Example 81, 6-{[4-Hydroxy-4-(hydroxymethyl)piperidin-1-yl]carbonyl}-5-methyl-3-(3,3,3-trifluoro-2-methoxypropyl)-1-(3,3,3-trifluoropropyl)thieno[2,3-d]pyrimidine-2,4(1H,3H)-dione]", "IC50": 170},
      {"smiles": "COC(Cn1c(=O)c2c(C)c(C(=O)N3CCC(O)CC3)sc2n(CCC(F)(F)F)c1=O)c1ccccc1", "note": "(single isomer, unassigned; enantiomer 1) [Example 48, 6-[(4-Hydroxypiperidin-1-yl)carbonyl]-3-(2-methoxy-2-phenylethyl)-5-methyl-1-(3,3,3-trifluoropropyl)thieno[2,3-d]pyrimidine-2,4(1H,3H)-dione (enantiomer 1)]", "IC50": 59},
      {"smiles": "CCn1c(=O)c2c(C)c(C(=O)N3CCNC(=O)C3)sc2n(CCC=C(F)F)c1=O", "note": "[Example 36, 1-(4,4-Difluorobut-3-en-1-yl)-3-ethyl-5-methyl-6-[(3-oxopiperazin-1-yl)carbonyl]thieno[2,3-d]pyrimidine-2,4(1H,3H)-dione]", "IC50": 200},
      {"smiles": "Cc1cccc(CCn2c(=O)c3c(C)c(C(=O)N4CCC(O)CC4)sc3n(CCC(F)(F)F)c2=O)c1", "note": "[Example 11, 6-[(4-Hydroxypiperidin-1-yl)carbonyl]-5-methyl-3-[2-(3-methylphenyl)ethyl]-1-(3,3,3-trifluoropropyl)thieno[2,3-d]pyrimidine-2,4(1H,3H)-dione]", "IC50": 510},
      {"smiles": "Cc1c(C(=O)N2CCC(O)CC2)sc2c1c(=O)n(CC(O)c1ccccc1)c(=O)n2CCC(F)(F)F", "note": "(single isomer, unassigned) [Example 100, 3-(2-Hydroxy-2-phenylethyl)-6-[(4-hydroxypiperidin-1-yl)carbonyl]-5-methyl-1-(3,3,3-trifluoropropyl)thieno[2,3-d]pyrimidine-2,4(1H,3H)-dione]", "IC50": 29},
      {"smiles": "C=C(Cn1c(=O)n(CC)c(=O)c2c(C)c(C(=O)N3CCC(O)CC3)sc21)C(F)(F)F", "note": "[Example 58, 3-Ethyl-6-[(4-hydroxypiperidin-1-yl)carbonyl]-5-methyl-1-[2-(trifluoromethyl)prop-2-en-1-yl]thieno[2,3-d]pyrimidine-2,4(1H,3H)-dione]", "IC50": 380},
      {"smiles": "Cc1c(C(=O)N2CCC(O)CC2)sc2c1c(=O)n(CCc1ccccc1Cl)c(=O)n2CCC=C(F)F", "note": "[Example 7, 3-[2-(2-Chlorophenyl)ethyl]-1-(4,4-difluorobut-3-en-1-yl)-6-[(4-hydroxypiperidin-1-yl)carbonyl]-5-methylthieno[2,3-d]pyrimidine-2,4(1H,3H)-dione]", "IC50": 110},
      {"smiles": "Cc1c(C(=O)N2CCC(O)CC2)sc2c1c(=O)n(CCc1cccc(Cl)c1)c(=O)n2CCC(F)(F)F", "note": "[Example 10, 3-[2-(3-Chlorophenyl)ethyl]-6-[(4-hydroxypiperidin-1-yl)carbonyl]-5-methyl-1-(3,3,3-trifluoropropyl)thieno[2,3-d]pyrimidine-2,4(1H,3H)-dione]", "IC50": 310},
      {"smiles": "COCCn1c(=O)n(CCc2ccccc2)c(=O)c2c(C)c(C(=O)N3CCC(O)CC3)sc21", "note": "[Example 3, 6-[(4-Hydroxypiperidin-1-yl)carbonyl]-1-(2-methoxyethyl)-5-methyl-3-(2-phenylethyl)thieno [2,3-d]pyrimidine-2,4(1H,3H)-dione]", "IC50": 290},
      {"smiles": "COC(Cn1c(=O)c2c(C)c(C(=O)N3CCC(O)(CO)CC3)sc2n(CCC(F)(F)F)c1=O)C(F)(F)F", "note": "(single isomer, unassigned) [Example 115, 6-{[4-Hydroxy-4-(hydroxymethyl)piperidin-1-yl]carbonyl}-5-methyl-3-(3,3,3-trifluoro-2-methoxypropyl)-1-(3,3,3-trifluoropropyl)thieno[2,3-d]pyrimidine-2,4(1H,3H)-dione]", "IC50": 610},
      {"smiles": "CCn1c(=O)c2c(C(C)F)c(C(=O)N3CCNC(=O)C3)sc2n(CCC(F)(F)F)c1=O", "note": "(single isomer, unassigned) [Example 149, 3-Ethyl-5-(1-fluoroethyl)-6-[(3-oxopiperazin-1-yl)carbonyl]-1-(3,3,3-trifluoropropyl)thieno[2,3-d]pyrimidine-2,4(1H,3H)-dione]", "IC50": 320},
      {"smiles": "CCn1c(=O)c2c(CF)c(C(=O)N3CCC(C)(O)CC3)sc2n(CCC(F)(F)F)c1=O", "note": "[Example 144, 3-Ethyl-5-(fluoromethyl)-6-[(4-hydroxy-4-methylpiperidin-1-yl)carbonyl]-1-(3,3,3-trifluoropropyl)thieno[2,3-d]pyrimidine-2,4(1H,3H)-dione]", "IC50": 170},
      {"smiles": "Cc1c(C(=O)N2CCNC(=O)C2)sc2c1c(=O)n(CCc1ccccc1F)c(=O)n2CCC=C(F)F", "note": "[Example 30, 1-(4,4-Difluorobut-3-en-1-yl)-3-[2-(2-fluorophenyl)ethyl]-5-methyl-6-[(3-oxopiperazin-1-yl)carbonyl]thieno[2,3-d]pyrimidine-2,4(1H,3H)-dione]", "IC50": 53},
      {"smiles": "CCn1c(=O)c2c(C)c(C(=O)N3CC4CCCC(C3)C4O)sc2n(CCC(F)(F)F)c1=O", "note": "(stereo not drawn) [Example 72, 3-Ethyl-6-[(9-hydroxy-3-azabicyclo[3.3.1]non-3-yl)carbonyl]-5-methyl-1-(3,3,3-trifluoropropyl)thieno[2,3-d]pyrimidine-2,4(1H,3H)-dione (α-epimer)]", "IC50": 17},
      {"smiles": "CCn1c(=O)c2c(C(F)F)c(C(=O)N3CCC(C)(O)CC3)sc2n(CCC(F)(F)F)c1=O", "note": "[Example 124, 5-(Difluoromethyl)-3-ethyl-6-[(4-hydroxy-4-methylpiperidin-1-yl)carbonyl]-1-(3,3,3-trifluoropropyl)thieno[2,3-d]pyrimidine-2,4(1H,3H)-dione]", "IC50": 37},
      {"smiles": "CCn1c(=O)c2c(C(F)F)c(C(=O)N3CCC(O)CC3)sc2n(CCC(F)(F)F)c1=O", "note": "[Example 122, 5-(Difluoromethyl)-3-ethyl-6-[(4-hydroxypiperidin-1-yl)carbonyl]-1-(3,3,3-trifluoropropyl)thieno[2,3-d]pyrimidine-2,4(1H,3H)-dione]", "IC50": 32},
      {"smiles": "CCCn1c(=O)c2c(C)c(C(=O)N3CCC(O)(CO)CC3)sc2n(CCOC)c1=O", "note": "[Example 78, 6-{[4-Hydroxy-4-(hydroxymethyl)piperidin-1-yl]carbonyl}-1-(2-methoxyethyl)-5-methyl-3-propylthieno[2,3-d]pyrimidine-2,4(1H,3H)-dione]", "IC50": 350},
      {"smiles": "COCCn1c(=O)n(CCc2ccccc2)c(=O)c2c(C)c(C(=O)N3CCNC(=O)C3)sc21", "note": "[Example 28, 1-(2-Methoxyethyl)-5-methyl-6-[(3-oxopiperazin-1-yl)carbonyl]-3-(2-phenylethyl)thieno[2,3-d]pyrimidine-2,4(1H,3H)-dione]", "IC50": 150},
      {"smiles": "CC(C)Cn1c(=O)c2c(C(F)F)c(C(=O)N3CCC(O)CC3)sc2n(CCOC(F)(F)F)c1=O", "note": "[Example 137, 5-(Difluoromethyl)-6-[(4-hydroxypiperidin-1-yl)carbonyl]-3-isobutyl-1-[2-(trifluoromethoxy)ethyl]thieno[2,3-d]pyrimidine-2,4(1H,3H)-dione]", "IC50": 12},
      {"smiles": "COCCn1c(=O)c2c(C)c(C(=O)N3CCC(O)CC3)sc2n(CCC(F)(F)F)c1=O", "note": "[Example 62, 6-[(4-Hydroxypiperidin-1-yl)carbonyl]-3-(2-methoxyethyl)-5-methyl-1-(3,3,3-trifluoropropyl)thieno[2,3-d]pyrimidine-2,4(1H,3H)-dione]", "IC50": 120},
      {"smiles": "CCc1c(C(=O)N2CCC(O)(CC)CC2)sc2c1c(=O)n(CC)c(=O)n2CCC(F)(F)F", "note": "[Example 128, 3,5-Diethyl-6-[(4-ethyl-4-hydroxypiperidin-1-yl)carbonyl]-1-(3,3,3-trifluoropropyl)thieno[2,3-d]pyrimidine-2,4(1H,3H)-dione]", "IC50": 13},
      {"smiles": "COCCn1c(=O)n(CC(F)(F)c2ccccc2)c(=O)c2c(C)c(C(=O)N3CCNC(=O)C3)sc21", "note": "[Example 94, 3-(2,2-Difluoro-2-phenylethyl)-1-(2-methoxyethyl)-5-methyl-6-[(3-oxopiperazin-1-yl)carbonyl]thieno[2,3-d]pyrimidine-2,4(1H,3H)-dione]", "IC50": 490},
      {"smiles": "Cc1c(C(=O)N2CCC(C)(O)CC2)sc2c1c(=O)n(CCc1ccccc1)c(=O)n2CCOC(F)(F)F", "note": "[Example 109, 6-[(4-Hydroxy-4-methylpiperidin-1-yl)carbonyl]-5-methyl-3-(2-phenylethyl)-1-[2-(trifluoromethoxy)ethyl]thieno[2,3-d]pyrimidine-2,4(1H,3H)-dione]", "IC50": 3.9},
      {"smiles": "Cc1c(C(=O)N2CCC(O)CC2)sc2c1c(=O)n(CCc1ccccn1)c(=O)n2CCC(F)(F)F", "note": "[Example 53, 6-[(4-Hydroxypiperidin-1-yl)carbonyl]-5-methyl-3-[2-(pyridin-2-yl)ethyl]-1-(3,3,3-trifluoropropyl)thieno[2,3-d]pyrimidine-2,4(1H,3H)-dione]", "IC50": 170}
    ]}
  ]
}
